Experimental data published in patent publication US20250263408A1 (Uniquest Pty Ltd, priority 2022, published 2025).

How the values were obtained:
Ba/F3-Syk cells = molecular target: T1, Ba/F3-Syk cells (Homo sapiens, UniProt P43405); assay: Ba/F3 Proliferation Assay, Ba/F3-Syk cells (Resazurin); type: cell-based; settings: 48-hour incubation
T1 construct: fused on or other part: Possible but unprinted fusion partner: TEL (ETV6), the usual partner for Ba/F3 lines transformed by Syk; Nothing on a partner is printed

Syk = molecular target: T2, Syk (Homo sapiens, UniProt P43405); assay: Syk Biochemical Assay (ADP-Glo luminescence); settings: ATP 40 μM final, 60 minutes, read-out: SYK Biochem IC50
T2 construct: purchased Promega

[1] = system: Ba/F3-WT (wild type) cells; assay: Ba/F3 Proliferation Assay, Ba/F3-WT (wild type) cells with mIL-3 (Resazurin); type: cell-based; settings: Mus musculus, BaF3, 48 h, Ba/F3-WT cells +mIL-3, 48-hour incubation
[2] = Brain Penetration Assays: Mouse Pharmacokinetics (plasma and brain levels after oral dose); type: in vivo; settings: male, CD-1, mouse, mice, 1 hour post oral dose of 10 mg/kg; for concentration at 1 h: brain (free, unbound); for Kp at 1 h: brain / plasma (unbound), read-out: Kpu,u (ratio of unbound brain levels to unbound plasma levels)
Protocol: Male CD-1 mice (6-8 weeks of age, 3 animals per timepoint) were dosed via oral gavage (10 mL/kg) with compound (10 mg/kg, 0.5% methylcellulose in water). Blood samples were taken either non-terminal via saphenous vein or terminal via cardiac puncture and stored in 1.5 mL Eppendorf tubes containing 0.010 mL of 10% K2EDTA, mixed gently and placed in ice before centrifugation. Blood was centrifuged at 10,000 r.p.m. for 2 minutes, plasma harvested and stored at −80° C. Following blood collection at the terminal time points, animals were sacrificed with C02 and brains quickly removed, rinsed with cold saline (0.9% NaCl), surface vasculature ruptured, blotted with dry gauze or tissue and weighed. The whole brain was homogenized in 1.0 mL ice cold phosphate-buffered saline, pH 7.4 and the homogenates stored at −80° C. Compound concentrations were quantified in plasma and brain tissue by LC-MS/MS using a partially validated bioanalytical method.
(§1) The Rapid Equilibrium Dialysis (RED) method was employed with plasma (200 μL, BioIVT, USA) in phosphate buffered saline (PBS, 350 μL) incubated with compound (1 μM) at 37° C. for 5 hours shaking at 450 r.p.m. Acetonitrile (3 volumes) was added and the sample centrifuged for 5 minutes and 1050 r.p.m. then for 15 minutes at 4000 r.p.m. Compound concentrations were quantified via LC-MS/MS from supernatant and free drug was calculated.
as §1, with “RED” for “Rapid Equilibrium Dialysis (RED)”, “mouse brain homogenate (10% w/v prepared in-house))” for “plasma (200 μL, BioIVT, USA) in phosphate buffered saline (PBS, 350 μL)”, “14” for “15”

MDR1 (Pgp) = assay: Permeability Assay, bi-directional flux in MDCKII-MDR1 cells; type: in vitro ADME, canine; settings: dog; for Papp at 2 h, 10 PM: MDCK-MDR1, 2 hours at 37° C., concentration printed as 10 PM; for efflux ratio at 2 h, 10 PM: MDCK-MDR1, ratio >2 indicates the compound is effluxed, read-out: efflux ratio (PappB-A/PappA-B)
Protocol: The assay was performed using Charles River/Agilux default assay conditions and default acetonitrile extraction and bioanalytical conditions. The assay was performed using MDCKII-MDR1 (Pgp) cells (canine MDCK stably transfected with MDR1). Bi-directional (A-B and B-A) flux measurements were carried out in triplicate aliquots from duplicate wells. The compounds were incubated for 2 hours at 37° C. at a concentration of 10 PM. The efflux ratio is the ratio of PappB-A/PappA-B, and a ratio >2 indicates the compound is effluxed.

Row | SMILES | EC50 (Ba/F3-Syk cells) [nM] | IC50 (Syk) [nM] | EC50 [1] [nM] | concentration at 1 h [2] [nM] | Kp at 1 h [2] | Papp at 2 h, 10 PM (MDR1 (Pgp)) [×10⁻⁶ cm/s] | efflux ratio at 2 h, 10 PM (MDR1 (Pgp))
1 | Cn1ccc(-c2cc3ncccc3c(OC[C@@H]3CNCCO3)n2)c1 [Compound 2.20, 7-(1-methyl-1H-pyrrol-3-yl)-5-{[(2S)-morpholin-2-yl]methoxy}-1,6-naphthyridine] | 87.5 | 37.8 | 4170 | > 25 | 0.2 to 0.3 | > 20 | ≤ 1
2 | CC1(C)CNC[C@@H](COc2nc(-c3cnn(C(C)(C)C)c3)cc3ncccc23)O1 [Compound 2.42, 7-(1-tert-butyl-1-pyrazol-4-yl)-5-{[(2S)-6,6-dimethylmorpholin-2-yl]methoxy}-1,6-naphthyridine] | 12.5 | 12.2 | 2340 | > 25 | 0.1 to 0.2 | > 20 | ≤ 1
3 | Cn1ccc(-c2cc(OC[C@@H]3CNCCO3)c3cccnc3c2)c1 [Compound 3.1, 7-(1-methyl-1H-pyrrol-3-yl)-5{-[(2S)-morpholin-2-yl]methoxy}quinoline] | 78.2 | 48.1 | 2660 |  | 0.1 to 0.2 | 15 to 20 | ≤ 1

Continued, values first:

Row | EC50 (Ba/F3-Syk cells) [nM] | IC50 (Syk) [nM] | EC50 [1] [nM] | concentration at 1 h [2] [nM] | Kp at 1 h [2] | Papp at 2 h, 10 PM (MDR1 (Pgp)) [×10⁻⁶ cm/s] | efflux ratio at 2 h, 10 PM (MDR1 (Pgp)) | SMILES
4 | 23.3 | 10.6 | 2120 | ≤ 25 | 0.05 to 0.1 | 15 to 20 | 1 to 2 | CC(C)n1cc(-c2cc(OC[C@@H]3CNCC(C)(C)O3)c3cccnc3c2)cn1 [Compound 3.6, 5-{[(2S)-6,6-dimethylmorpholin-2-yl]methoxy}-7-[1-(propan-2-yl)-1H-pyrazol-4-yl]quinoline]
5 | 35.6 | 16 | 2550 |  | 0.1 to 0.2 | > 20 | 1 to 2 | CC(C)n1ccc(-c2cc3ncccc3c(OC[C@@H]3CNCCO3)n2)c1 [Compound 6.2, 5-{[(2S)-morpholin-2-yl]methoxy}-7-[1-(propan-2-yl)-1H-pyrrol-3-yl]-1,6-naphthyridine]
6 | 11.4 | 14.1 | 3300 |  | 0.1 to 0.2 | 15 to 20 | ≤ 1 | CC(C)n1ccc(-c2cc3ncccc3c(OC[C@@H]3CNCC(C)(C)O3)n2)c1 [Compound 6.9, 5-{[(2S)-6,6-dimethylmorpholin-2-yl]methoxy}-7-[1-(propan-2-yl)-1H-pyrrol-3-yl]-1,6-naphthyridine]
